# Literature values as cited in US11492588B2, “Lactococcus lactis subsp. lactis CCFM1018 and application thereof in preparation of food and medicine for excreting plasticizer” (priority 2018, dated 2022).
# Conditions: human body
smiles,measurement,setting,value
"CCCCC(CC)COC(=O)c1ccccc1C(=O)OCC(CC)CCCC (stereo not shown) [DEHP, di(2-ethylhexyl) phthalate]",Absorption and distribution period,,4 to 8 h
same,Time within which most of the DEHP is completely metabolized,,≤ 24 h
same,Share converted into five secondary metabolites and excreted in urine,24 h after entry,about 67%
same,Share directly excreted in urine,24 h after entry,less than 10%
